Reference: US12048705B2, “Immunoablative therapies” (AVM Biotechnology, LLC, priority 2018, dated 2024)
Where “and” joins values, the source holds several entries; their conditions need not be identical. Equal entries are not always repeated. Where two headings read alike, the source gives them in different places. Marks after values point to notes of the source that are not given here.

Columns and labels:
[1] = system: peripheral blood lymphocytes; assay: Repeat of Hinrichs dexamethasone dosing, peripheral blood lymphocytes by flow cytometry; format: in vivo; design: reduction of Tregs / reduction of NK cells / reduction of CD3+ T lymphocytes / reduction of CD3+CD4+ T lymphocytes / reduction of CD3+CD8 T lymphocytes: concentration or dose not given beside the values
germinal centers = assay: Germinal centers in mouse spleen, FITC-PNA immunofluorescence; format: in vivo; conditions: HED
Protocol: FIG. 2. […] A graph of column plots of average Germinal Center staining intensity measured using immunofluorescent staining of fresh thick spleen sections stained with FITC-PNA is shown. Immunofluorescent intensity was calculated using thresholding and MetaMorph Image Analysis. Columns are average plus SEM.
The spleens were removed, weighed wet, and then fixed in 10% formalin. Subsequently the spleens were sectioned via proprietary methods and then incubated with FITC-PNA at 4 degC for 24 hours, washed, placed on slides and immunofluorescent images were captured. Metamorph software was used to quantify the immunofluorescent signal.

[2] = system: marginal zone and germinal centers of the spleen; assay: Rat spleen marginal zone width (H&E) and germinal center area (BCL-6 staining); format: in vivo; conditions: IV or PO, 48 hours
Protocol: Column plots of the area per spleen of BCL-6 staining of 5 micron fixed spleen sections as a measure of germinal center numbers given as average per section are shown.
Formalin-fixed spleens were cross-sectioned in 5 pieces, trimmed and embedded in paraffin, sectioned and stained with hematoxylin and eosin (H&E). Measurements of the periarteriolar lymphoid sheath (PAL) diameter and the width of the marginal zone (MZ) in areas of white pulp that had PAL with the greatest diameter were measured using an ocular micrometer. BCL-6 immunohistochemical staining in rat spleens was evaluated to determine GC area using automated image analysis methods.

lymphocytes, neutrophils = assay: Rat complete blood count 48 hours after IV or PO dexamethasone; format: in vivo; conditions: male Lewis rats
Protocol: FIG. 7. […] Data in FIGS. 3, 4, and 6 are from the same rats. […] Oral (left) and IV (right) doses were administered 1×48 hours before blood withdrawal.

IL-2, IL-15, IL-6 = conditions: oral 3 mg/kg, 48 hours
Protocol: Blood was drawn before drug treatment and 48 hours post-treatment for CBC analysis and flow cytometry to determine lymphocyte and other blood cell populations. Serum was analyzed for cytokine levels.

[3] = Double-blind controlled horse trial, adverse effects; format: in vivo; conditions: acute high dose; out to 70 days
A20 B cell lymphoma = A20 B cell lymphoma mouse model, tumor volume; format: in vivo; conditions: 15 mg/kg HED on days 7, 10, 18, 23, 24, 28, 35, 42
Protocol: (§1) In the present study, mice were housed, inoculated and treated in the same way as reported in the Bascus et al. (2016) study. […] Tumor volume (mm^3) was measured every 2-3 days.

[4] = Clinical chemistries in mice after acute oral doses; format: in vivo, mouse
[5] = system: multiple myeloma and other cancer cell lines; assay: Direct tumor killing of cancer cell lines; format: cell-based; conditions: about 1.6 mg/kg HED in a 48 hour period; maintained but not increased up to about 12 mg/kg HED
[6] = system: peripheral blood lymphocytes
Protocol: Each patient's pre-treatment values are connected to post-treatment values by a connecting line.
Each patient's pre-treatment values are connected to post-treatment values by a connecting line. […] HSCs are identified by being CD34+CD38−.
Blood was drawn before drug treatment and 48 hours post-treatment for CBC analysis and flow cytometry to determine lymphocyte and other blood cell populations. […] For one patient, pre-treatment CBCs were not drawn and thus normalized flow cytometry data is shown for only 3 patients.

[7] = mouse, in vivo
Protocol: To another group of mice Cy was administered IP at 166 mg/kg (HED 500 mg/m2) on day −5 and day −4 and Fludarabine 10 mg/kg (HED 30 mg/m2) on days −5, −4, −3, −2.

[8] = mouse, in vivo, 15 mg/kg
[9] = HED, cited from earlier work
[10] = A20 B cell lymphoma mouse model, toxicity (body weight, deaths); conditions: 15 mg/kg dexamethasone base HED
Protocol: as §1

hematopoietic stem cells = assay: Live hematopoietic stem cells in naive mice 48 hours after treatment; conditions: high doses
[11] = A20 tumor bearing mice, cell counts by CBC analyzer and chemistry (Table 2); conditions: A20 tumor bearing male mice, 15 mg/kg HED on day 28, animals 12 and 7
[12] = system: peripheral blood lymphocytes; assay: Mouse complete blood count and flow cytometry 24-48 hours after oral dexamethasone
Excerpt: CD3 and CD4 positive lymphocytes. […] Relative counts/ul=flow cytometry and complete blood count combined. […] Doses are shown as HED (human equivalent dose). A one-way ANOVA followed by Tukey's test was incorporated to determine statistical significance between the treatment groups; * p<0.05, ** p<0.01, *** p<0.001.
Treg lymphocytes were identified by being CD3+CD4+CD25+FoxP3+. Relative counts/ul=flow cytometry and complete blood counts combined. […] Doses are shown as HED (human equivalent dose). A one-way ANOVA followed by post-hoc Tukey's test was incorporated to determine statistical significance between the treatment groups; * p<0.05, ** p<0.01.
NK cells were identified by being CD3−CD49b+. B lymphocytes were identified by being CD3−B220+. Relative counts/ul=flow cytometry and complete blood counts combined. […] Doses are shown as HED (human equivalent dose). A one-way ANOVA followed by post-hoc Tukey's test was incorporated to determine statistical significance between the treatment groups; * p<0.05, ** p<0.01; *** p<0.001.
Cells/ul=absolute numbers obtained from complete blood counts (CBC). […] Doses are shown as HED (human equivalent dose).
Cells/ul=absolute numbers obtained from CBC. […] Doses are shown as HED (human equivalent dose).

[13] = human, in vivo; cited from earlier work
B lymphocytes = assay: Treatment of patients with autoimmune diseases (paper examples 5 and 9); format: in vivo, human; conditions: acute high dose, patient with an autoimmune disease
Protocol: Acute high dose prednisone doses range from about 19 mg/kg to about 150 mg/kg, with doses between about 56 mg/kg and about 112 mg/kg being preferred, with a repeat (second) administration of this dose 24 hours later and an optional repeat (third) administration of this dose 48-72 hours after the initial dose.

[14] = in vivo; cited from earlier work
[15] = system: spleen weights, germinal centers; conditions: mice, po daily for 13 weeks; cited from earlier work
[16] = oral, 12 mg/kg HED group vs placebo, 24-48 hours

Q: What does the source list for `C[C@@H]1C[C@H]2[C@@H]3CCC4=CC(=O)C=C[C@]4(C)[C@@]3(F)[C@@H](O)C[C@]2(C)[C@@]1(O)C(=O)CO` [dexamethasone]?
A: CD3+ T lymphocytes, live events ([1]; intraperitoneal 10 mg/kg (HED 0.81 mg/kg) on day −6, −4, −2, vehicle 3370): 2441 live events; CD3-CD19+ B lymphocytes in the peripheral blood, live events by flow cytometry ([1]; intraperitoneal 10 mg/kg (HED 0.81 mg/kg) on day −6, −4, −2, vehicle control 10680): 3733 live events; reduction of B lymphocytes ([1]; intraperitoneal 10 mg/kg (HED 0.81 mg/kg) on day −6, −4, −2, vs vehicle, significant): 65%; reduction of CD3+ T lymphocytes ([1]; same dosing, non-significant): 33%; reduction of CD3+CD4+ T lymphocytes ([1]; same dosing, non-significant): 50%; reduction of CD3+CD8 T lymphocytes ([1]; same dosing, non-significant): 3%; reduction of NK cells ([1]; same dosing, non-significant): 17%; reduction of Tregs ([1]; same dosing, non-significant): 65%; CD3+CD4+CD25+FoxP3+ Tregs, live events ([1]; same dosing, vehicle 198): 70 live events; CD3+CD8 T lymphocytes, live events ([1]; same dosing, vehicle 1318): 1277 live events; CD3+CD4+ T lymphocytes, live events ([1]; same dosing, vehicle 1779): 902 live events; acute dose from which germinal centers are reduced (germinal centers): ≥ 6 mg/kg; acute dose from which germinal centers are reduced (germinal centers; listed as Dexamethasone): ≥ 3 mg/kg; dose of maximal inhibition of germinal center area [2]: 12.9 mg/kg HED; dose of maximal inhibition of marginal zone [2]: 12.9 mg/kg HED; RBCs, platelets, Hct, HgB (lymphocytes, neutrophils): not affected; neutrophil number (lymphocytes, neutrophils; all doses): increased by all doses; IL-6 level (IL-2, IL-15, IL-6): not elevated in any patient; patients with increased serum IL-2 and/or IL-15 levels (IL-2, IL-15, IL-6): 100%; adverse side effects [3]: no adverse side effects were observed; efficacy in terms of tumor volume control compared with CHOP (A20 B cell lymphoma): greater than 1 cycle of CHOP, but not quite as effective as 2 cycles of CHOP; clinical chemistry levels including cholesterol and total protein ([4]; acute oral doses, HED 6-12 mg/kg): do not elevate clinical chemistry levels out of normal range; glucose level ([4]; after acute high dose): not elevated over the normal range; direct tumor killing [5]: about 50%; patients showing lymphocytosis ([6]; 3 mg/kg HED): 50%; hematopoietic stem cells (CD34+CD38−) ([6]; human, in vivo, po, 3 mg/kg): spared; body weight as a general measure of toxicity [7]: did not impact body weight; CRE [8]: 0.5; GGT [8]: 0; NRBC [8]: 0*; lowest lethal dose ([9]; healthy mice): 114 mg/kg; lowest lethal dose ([9]; tumor bearing mice): 43 mg/kg; mice that died from the treatment [10]: no mice died; number of live hematopoietic stem cells (hematopoietic stem cells): did not significantly alter; BAS % [11]: 0%; EOS % [11]: 0%; Meta % [11]: 0%; BASCT ([11]; 15 mg/kg): 38 and 57; CA ([11]; 15 mg/kg): 9.9 and 10.0; EOSCT ([11]; 15 mg/kg): 158 and 92; LYM % ([11]; 15 mg/kg): 30% and 53%; MON % ([11]; 15 mg/kg): 0% and 3%; NEU % ([11]; 15 mg/kg): 70% and 44%; NEUCT ([11]; 15 mg/kg): 550 and 280; TP ([11]; 15 mg/kg): 5.5 and 5.4; WBC ([11]; 15 mg/kg): 860 and 1150; reduction in CD4+, CD8+, Tregs and B cells population ([12]; naive mouse and rat models, high doses, 48 hours after administration, preliminary): ~98%; HED dose giving almost complete lymphoablation ([12]; normal mice, oral): greater than 12 mg/kg; absolute neutrophils ([12]; oral HED 3-17.5 mg/kg, 24-48 hours): does not affect; absolute RBCs and platelets ([12]; oral HED 3-17.5 mg/kg, 48 hours): does not affect; reduction in B lymphocytes (CD3−B220+) [12, 16]: 83%; reduction in CD3+ T lymphocytes [12, 16]: 65%; reduction in CD4+ T lymphocytes [12, 16]: 75%; reduction in CD8+ T lymphocytes [12, 16]: 56%; reduction in NK cells (CD3−CD49b+) [12, 16]: 87%; reduction in Tregs (CD3+CD4+CD25+FoxP3+) [12, 16]: 78%; reduction in absolute lymphocyte count ([12]; oral, C57B1 male mice vs placebo, 24 to 48 hours, dose group not stated): 84%

Q: For “alemtuzumab: anti-CD52 lymphocyte depletional agent”, which “patients who developed (primarily thyroid) autoimmunity” value [13] is on record?
A: two thirds

Q: What does the source list for `C[C@]12C=CC(=O)C=C1CC[C@@H]1[C@@H]2C(=O)C[C@@]2(C)[C@H]1CC[C@]2(O)C(=O)CO` [prednisone]?
A: reduction of B lymphocyte numbers (B lymphocytes): greater than 90%; reduction of memory B cell populations (B lymphocytes): greater than 90%; biologic half-life [14]: about 20 hours; dose above which spleen weights or germinal centers are significantly impacted [15]: over 2.5 mg/kg
